# “Also recorded” adds a separate entry of the source.
# What was measured:
# [1] = test system: Otsuka Long-Evans Tokushima Fatty (OLETF) rat; test: Observation of treated animals during dosing window; format: in vivo; conditions: all treated animals, regardless of dose frequency relaxation
# [2] = test system: Otsuka Long-Evans Tokushima Fatty (OLETF) rat; test: Morphometrical measurements (body mass, abdominal fat, food and water intake, activity) in advanced MetS rats; format: in vivo
# From the text: Animals—The Otsuka Long-Evans Tokushima Fatty (OLETF) rat is a monogenic model of diet-induced obesity accelerated by a mutation in the CCK receptor. […] At >40 weeks of age, OLETF rats suffer from severe metabolic dysfunction and therefore serve as a model of aged, severe MetS.
# (§1) Male lean Long Evan's Tokushima Otsuka (LETO) rats and obese Otsuka Long Evans Tokushima Fatty (OLETF) rats (Japan SLC Inc., Hamamatsu, Japan), both 14 weeks of age were assigned to the following groups (n=8/group): (1) vehicle-dosed LETO (LETO), (2) vehicle-dosed OLETF (OLETF), and (3) H4CBD-treated (200 mg/kg/day×4 weeks) OLETF (H4CBD). Rats were maintained in a specific pathogen-free, climate-controlled facility on a 12-hour light: dark cycle (07:00-19:00 and 19:00-07:00, respectively). All animals had free access to water and were fed rat chow (Teklad Global; fat 9.0%; carbohydrate 44.9%; protein 19.0%) ad libitum. Treatment intervention was initiated at 41 weeks of age. Phenotypic data (i.e. body mass, food intake) was collected daily for all animals.
# Purified H4CBD (>99%) was suspended in food grade sesame oil and administered by oral gavage at a dose of 200 mg/kg.
# Tissue Collection—After the 4-week study and 3 days following the OGTT, animals were fasted overnight and tissues were collected the following morning.
# as §1, with “Animals—Male” for “Male”, “facility at the University of California, Merced” for “facility”, “age.” for “age. Phenotypic data (i.e. body mass, food intake) was collected daily for all animals.”
# (§2) Body Mass (BM), Water, and Food Intake—BM was measured daily to calculate the appropriate drug and vehicle dose. Water, urine and food were measured once every 24 hours throughout the study.
# Telemeter Implantation—At 16 weeks, OLETF rats (n=5) were implanted with DSI telemeters (HD-S10) in the abdominal cavity to measure systolic blood pressure. […] Activity was measured every hour for 15 minutes for the duration of the study. Data were analyzed using A.R.T. software (DSI, St. Paul, MN).
# Drug Preparation and Administration—Purified H4CBD (>99%) was suspended in sesame oil and administered by oral gavage at a dose of 200 mg/kg.
# Tissue Collection—After the 4-week study period, animals were fasted overnight, and tissues were collected at sacrifice the following morning. BM was recorded before animals were decapitated and trunk blood was collected.
# [3] = test system: endocannabinoid receptors; conditions: cited from earlier work
# [4] = test system: Otsuka Long-Evans Tokushima Fatty (OLETF) rat; test: Urinalysis (urine volume, total protein, creatinine, 3-methylhistidine); format: in vivo
# Procedure: as §2
# Urinalysis—Urine was collected and thawed on ice to measure 3-methylhistidine (3MH; Abbexa; 257295) and creatinine (Invitrogen; EIACUN). Excretion was calculated for both by multiplying the 24-hr urine volume by the measured concentration (U×V=V*[x]), where x=creatinine or 3MH.
# Collagen Type IV = test: Liver Type IV collagen deposition (liver damage); format: in vivo, rat; conditions: collagen 71% higher in OLETF than LETO
# From the text: Type IV collagen deposition is an indicator of liver fibrosis, which is useful in the diagnosis of NAFLD in elderly individuals and models of NAFLD like OLETF.
# lipase activity = test: Lipase activity assay (adipose, liver, plasma); format: in vivo, rat
# Procedure: Lipase Activity Assay—White adipose tissue (WAT) and liver was assayed for lipase activity.
# [5] = OLETF rats, 200 mg/kg oral, 4 weeks, p<0.05
# [6] = average between day 10 and day 30
# [7] = by day 13 through the end of the study
smiles,measurement,setting,value
"CCCCCc1cc(O)c(C2CC(C)CCC2C(C)C)c(O)c1 (stereo not drawn) [H4CBD, 2-(2-isopropyl-5-methylcyclohexyl)-5-pentylbenzene-1,3-diol]",Stool observation,[1],soft stool at multiple points of the dosing window
same,Activity score relative to OLETF control,"[2]; DSI HD-S10 telemeter, H4CBD n=3, OLETF n=2, p=0.0985, not significant",nearly doubled
same,Body mass (g),"[2]; H4CBD-treated OLETF rats, 200 mg/kg oral gavage, 4 weeks, mean ± SEM, n = 8",516 ± 21^^# g
same,"Final, absolute food intake","[2]; H4CBD-treated OLETF rats, 200 mg/kg oral, 4 weeks, average of 3 days, mean ± SEM",36 ± 2 g
same,Relative total fat (g/100 g BM),"[2]; H4CBD-treated OLETF rats, 200 mg/kg oral, 4 weeks, epi.+retro., mean ± SEM",7.8 ± 1.1 g/100 g BM
same,Relative epi. fat (g/100 g BM),"[2]; H4CBD-treated OLETF rats, 200 mg/kg oral, 4 weeks, epidydimal, mean ± SEM",1.2 ± 0.1^^# g/100 g BM
same,Relative final food intake (g/100 g BM),"[2]; H4CBD-treated OLETF rats, 200 mg/kg oral, 4 weeks, mean ± SEM",6.7 ± 0.4 g/100 g BM
same,Relative retro. fat (g/100 g BM),"[2]; H4CBD-treated OLETF rats, 200 mg/kg oral, 4 weeks, retroperitoneal, mean ± SEM",6.6 ± 0.9 g/100 g BM
same,"Initial, absolute food inake","[2]; H4CBD-treated OLETF rats, average of 3 days, mean ± SEM",34 ± 2 g
same,Reduction of relative combined (total) adipose compared to OLETF,"[2]; OLETF rats, 200 mg/kg oral, 4 weeks",25%
same,Change in food consumption compared to OLETF,"[2]; OLETF rats, 200 mg/kg oral, 4 weeks (Table 1)",not associated with a change in food consumption
same,Effect on body mass (BM),"[2]; OLETF rats, 200 mg/kg oral, 4 weeks, compared with vehicle LETO, 200 mg/kg",reduced BM in OLETF to LETO levels within the first week; also recorded: reduced BM to vehicle-treated LETO levels
same,Reduction of relative epidydimal fat compared to OLETF control,[2]; [5],35%
same,Reduction of relative retroperitoneal fat compared to OLETF control,[2]; [5],24%
same,BM of vehicle-treated OLETF higher than H4CBD-treated OLETF,"[2]; OLETF rats, 200 mg/kg oral, after first week (day 10-30), p<0.05",15%
same,Increased relative food consumption compared to OLETF control,[2]; [6],24%
same,Increased relative food intake consumption compared to LETO,[2]; [6],74%
same,Water intake higher than LETO,[2]; [7],> 600%
same,Water intake higher than OLETF control,[2]; [7],90%
same,Affinity for the endocannabinoid receptors responsible for cannabis intoxication,[3],little affinity
same,"Urine excretion compared to vehicle control, first week",[4]; 24-hour urine,reduced
same,"Urine excretion volume compared to OLETF control, remainder of study","[4]; 24-hour urine, persisted through the remainder of the study",increased above OLETF control by Day 11
same,Increase of 3MH excretion pre- vs. post-treatment,[4]; Day 0 vs Day 28,9%
same,3MH excretion less than OLETF control,[4]; after 4 weeks,17%
same,Reduction of creatinine excretion compared to OLETF control,[4]; after 4 weeks,42%
same,Increase of creatinine excretion within H4CBD-treated group,"[4]; after 4 weeks of treatment vs Day 0, non-significant",10%
same,3MH/Cr higher than OLETF control,"[4]; post-treatment (Day 28), p=0.07",77%
same,Reduction of proteinuria compared to OLETF control,[4]; total urinary protein excretion after 4 weeks,25%
same,Increase of 3MH/Cr after 4 weeks,"[4]; within H4CBD treated OLETF, muscle wasting index",4%
same,Liver collagen (Type IV) deposition,Collagen Type IV,no effect on collagen levels
same,"Liver lipase activity (cytosolic, membrane)","lipase activity; LETO, OLETF, H4CBD",not different among groups
same,Fasted plasma lipase activity,lipase activity; data not shown,not significantly different among groups
same,Increase of adipose lipase activity compared to OLETF control,"lipase activity; white adipose tissue, tended, p=0.094",22%

# Reference: patent US20260248820A1, “USES OF HYDROGENATED CANNABIDIOL (H4CBD) AND ADVANCED METABOLIC SYNDROME” (The Regents of the University of California, priority 2022, published 2026)
